These results are taken from patent US20080131511A1, “Pharmaceutical Composition for Treatment of Tear and Salivary Fluid Drying” (Astellas Pharma, Inc., priority 2004, published 2008).

Holding throughout (type): in vivo, mouse (male Balb/c)
Assay [1] relates to lacrimal gland. As to the kind of experiment: Tear fluid secretion after subcutaneous bolus administration. The settings on record: mice; for dose at which statistically significant acceleration of tear fluid secretion was attained: s.c. bolus. On the procedure: (§1) Male Balb/c mice were used in the test.
The compound A was dissolved in physiological saline to a concentration of 1, 3, 10, 30 or 100 mg/5 ml, and 5 ml/kg of the drug solution was administered under the dorsal skin. Secreted amounts of salivary and tear fluid were measured just before the administration of compound A and 10, 20, 30, 40 and 50 minutes after the administration. The sweating action was measured 10 minutes after the administration. Also, the growth acceleration action was measured 6 hours after the administration.
Pilocarpine was dissolved in physiological saline to a concentration of 0.03, 0.1, 0.3, 1, 3 or 10 mg/5 ml, or cevimeline to a concentration of 0.3, 1, 3, 10, 30 or 100 mg/5 ml, and 5 ml/kg of the drug solution was administered under the dorsal skin. Secreted amounts of salivary and tear fluid were measured just before the administration of pilocarpine or cevimeline and 10, 20, 30, 40 and 50 minutes after the administration. The sweating action was measured 10 minutes after the administration. Also, the growth acceleration action was measured 6 hours after the administration.
(§2) The mouth of a mouse was wiped with a cotton ball whose weight had been measured in advance, and the incremental weight was used as the amount of salivary fluid. Also at the same time, a thread for tear fluid measurement (Zone Quick; Menicon) used on the Schirmer test was inserted into the lower eyelid conjunctival sac, and the length of colored part was measured and used as the amount of tear fluid. From the measurement results, area under the secreted amount-versus-time curve (AUC) was calculated.
(§3) All of the test results were expressed as fold increases of the reactions of the drug-administered group versus those of the vehicle-administered group, and comparison between the drug-administered groups and the vehicle-administered group was carried out using Dunnett's t-test. P<0.05 was considered significant. Results

Assay [2] has as its system salivary gland. Nature of the assay: Salivary fluid secretion during subcutaneous continuous administration (osmotic pump). The note with it: mice; for dose showing statistically significant salivary fluid secretion acceleration: cumulative quantity vs vehicle group; for Salivary fluid: AUC of secreted amount. Here is the method: as §1
The compound A was dissolved in physiological saline to a concentration of 0.625, 1.25, 2.5, 5.0, 10 or 20 mg/200 μl, and filled each pump (Alzet mini-osmotic pump 2001D, 8 μl/h, 1 day; DURECT Corporation) with about 200 μl portions It means, that is, each pump releases at a rate of 0.025, 0.05, 0.1, 0.2, 0.4 or 0.8 mg compound A/h, respectively. About 5 mm of dorsal epidermis of a mouse anesthetized with diethyl ether was incised, the osmotic pump already filled with the compound A was subcutaneously implanted, and then the skin was stitched. Secreted amounts of salivary and tear fluid and sweating were periodically measured from just before the implantation of pump until 32 hours after the administration. The ornithine decarboxylase activity was measured 10 hours after the implantation.
Pilocarpine was dissolved in physiological saline to a concentration of 0.039, 0.078, 0.16 or 0.31 mg/200 μl, or cevimeline to a concentration of 0.16, 0.31, 0.63 or 1.3 mg/200 μl, and filled the osmotic pump (Alzet mini-osmotic pump 2001 D, 8 μl/h, 1 day; DURECT Corporation) with about 200 μl portions. It means, that is, each pump releases at a rate of 0.00156, 0.00312, 0.0064 or 0.0124 mg/h (pilocarpine) or 0.0064, 0.0124, 0.0252 or 0.05 mg/h (cevimeline). About 5 mm of dorsal epidermis of a mouse anesthetized with diethyl ether was incised, the osmotic pump already filled with pilocarpine or cevimeline was subcutaneously implanted, and then the skin was stitched. Secreted amounts of salivary and tear fluid and sweating were periodically measured from just before the implantation of pump until 32 hours after the administration. The ornithine decarboxylase activity was measured 10 hours after the implantation.
as §2, §3

The test system of assay [3] is ornithine decarboxylase (ODC) activity of extra-orbital lacrimal gland. As to the kind of experiment: Ornithine decarboxylase activity of extra-orbital lacrimal gland after subcutaneous bolus administration. The settings on record: mice. Here is the method: (§4) Male Balb/c mice were used in the test. […] Also, the growth acceleration action was measured 6 hours after the administration. […] Also, the growth acceleration action was measured 6 hours after the administration. […] Thus, it can be easily analogized that the ODC activity becomes a useful index of cell growth and function of the exocrine gland. Accordingly, the ability of each drug to activate glandular tissue was evaluated by measuring ODC activity of parotid salivary gland and extra-orbital lacrimal gland. The amount of ^14CO2 formed from L-^14C-ornithine was used as the index of ODC activity. A mouse anesthetized with diethyl ether was sacrificed by bleeding, and left and right parotid salivary glands and extra-orbital lacrimal glands were isolated. After removing the attached connective tissue and fat, the isolated glandular tissues homogenized in 1.5 ml of a homogenate buffer (25 mM Tris-HCl buffer (pH 7.4) containing 0.1 mM ethylenediaminetetraacetic acid, 0.4 mM pyridoxal phosphate, 5 mM dithiothreitol and 0.1% Brij 35®) using a Potter type homogenizer and then centrifuged at 4° C., 15,000 g for 30 minutes, and the supernatant was used as the enzyme fraction. […] The ^14CO2 generated by the reaction was captured by 150 μl of 1 N NaOH soaked in a glass filter. Radioactivity of the ^14CO2 captured on the glass filter was detected using a liquid scintillation counter. The enzyme activity (pmol ^14CO2/mg protein/hour) was calculated from the measured results. All of the test results were expressed as fold increases of the reactions of the drug-administered group versus those of the vehicle-administered group, and comparison between the drug-administered groups and the vehicle-administered group was carried out using Dunnett's t-test. P<0.05 was considered significant. Results

Assay [4] has as its system ornithine decarboxylase (ODC) activity of parotid salivary gland. Nature of the assay: Ornithine decarboxylase activity of parotid salivary gland after subcutaneous bolus administration. The settings on record: mice. Here is the method: as §4
Setting [5] is: 10 minutes after administration.
Where [6] appears, read: s.c. osmotic pump 0.16 mg (0.0064 mg/h).
The mark [7] stands for this setting: s.c. osmotic pump 0.31 mg (0.0124 mg/h).
[8] abbreviates: s.c. bolus 10 mg/kg, ODC activity 6 hours after administration (Table 4).
Setting [9] is: s.c. bolus 30 mg/kg, ODC activity 6 hours after administration (Table 4).
The mark [10] stands for this setting: s.c. bolus 100 mg/kg, ODC activity 6 hours after administration (Table 4).
Where [11] appears, read: s.c. bolus 10 mg/kg, ODC activity 6 hours after administration.
Where [12] appears, read: s.c. bolus 30 mg/kg, ODC activity 6 hours after administration.
Setting [13] is: s.c. bolus 100 mg/kg, ODC activity 6 hours after administration.
Where [14] appears, read: s.c. bolus 1 mg/kg, ODC activity 6 hours after administration.
[15] abbreviates: s.c. bolus 3 mg/kg, ODC activity 6 hours after administration.
Where [16] appears, read: s.c. bolus 10 mg/kg, ODC activity 6 hours after administration (Table 3).

On to `CC1OC2(CS1)CN1CCC2CC1` (centres unmarked) [cevimeline], for which the Tear fluid was 1.1 ± 0.14 fold increase vs. the vehicle group in assay [1] (s.c. bolus 0.3 mg/kg, 10 minutes after administration (Table 4)); 1.1 ± 0.14 fold increase vs. the vehicle group in assay [1] (s.c. bolus 1 mg/kg, 10 minutes after administration (Table 4)); 1.1 ± 0.16 fold increase vs. the vehicle group in assay [1] (s.c. bolus 3 mg/kg, 10 minutes after administration (Table 4)); 3.6 ± 0.88 fold increase vs. the vehicle group in assay [1] (s.c. bolus 10 mg/kg, 10 minutes after administration (Table 4)). Also, the “dose at which statistically significant acceleration of tear fluid secretion was attained” value in assay [1] (setting [5]) was determined as 10 mg/kg. Besides, in assay [2] (s.c. continuous administration), the “dose showing statistically significant salivary fluid secretion acceleration” value was 0.63 mg. The Salivary fluid in assay [2] (setting [6]) is 0.98 ± 0.10 fold increase vs. the solvent group; in assay [2] (setting [7]) it was 1.0 ± 0.12 fold increase vs. the solvent group; in assay [2] (s.c. osmotic pump 0.63 mg (0.0252 mg/h)), 1.5 ± 0.11 fold increase vs. the solvent group; in assay [2] (s.c. osmotic pump 1.25 (0.05 mg/h)), 1.7 ± 0.17 fold increase vs. the solvent group. In addition, the “Glandular cell growth Lacrimal gland” value is 1.2 ± 0.90 fold increase vs. the vehicle group in assay [3] (setting [8]), 1.2 ± 0.52 fold increase vs. the vehicle group in assay [3] (setting [9]) and 1.7 ± 0.79 fold increase vs. the vehicle group in assay [3] (setting [10]). In addition, the “Glandular cell growth Salivary gland” value was 1.7 ± 065 fold increase vs. the vehicle group in assay [4] (setting [8]), 1.1 ± 0.33 fold increase vs. the vehicle group in assay [4] (setting [9]) and 1.1 ± 0.33 fold increase vs. the vehicle group in assay [4] (setting [10]).
Take `C=C1CC2(CCN(C)CC2)O[C@H]1C` [compound A, (−)-(S)-2,8-dimethyl-3-methylene-1-oxa-8-azaspiro[4.5]decane]: the Tear fluid in assay [1] (s.c. bolus 1 mg/kg, 10 minutes after administration) was 1.3 ± 0.11 fold increase vs. the vehicle group; in assay [1] (s.c. bolus 3 mg/kg, 10 minutes after administration) it was 1.4 ± 0.15 fold increase vs. the vehicle group; in assay [1] (s.c. bolus 10 mg/kg, 10 minutes after administration), 2.2 ± 0.25 fold increase vs. the vehicle group. For the same molecule, in assay [1] (setting [5]), the “dose at which statistically significant acceleration of tear fluid secretion was attained” value came to 10 mg/kg. For the same molecule, the “dose at which salivary fluid secretion acceleration action reached maximum” value in assay [2] (s.c. continuous administration) came out at 5 mg. Moreover, the “time after osmotic pump implantation at which secreted amount of tear and salivary fluid became maximum” value in assay [2] (s.c. continuous administration) is 10 h. Further, in assay [2] (s.c. continuous administration), the “time after osmotic pump implantation at which secreted amount of tear and salivary fluid started to increase” value turned out to be 4 h. For the same molecule, the “time after which secretion acceleration action almost disappeared” value in assay [2] (s.c. continuous administration) worked out at 32 h. In assay [2] (s.c. continuous administration), the “time until which increased secretion of tear and salivary fluid continued” value amounted to 26 h. Also, the “dose showing statistically significant salivary fluid secretion acceleration” value in assay [2] (s.c. continuous administration) was at least 2.5 mg. Moreover, the Salivary fluid in assay [2] (s.c. osmotic pump 0.63 mg (0.025 mg/h)) was 0.84 ± 0.11 fold increase vs. the vehicle group; in assay [2] (s.c. osmotic pump 1.25 mg (0.05 mg/h)), 1.4 ± 0.11 fold increase vs. the vehicle group; in assay [2] (s.c. osmotic pump 2.5 mg (0.1 mg/h)), 2.1 ± 0.13 fold increase vs. the vehicle group; in assay [2] (s.c. osmotic pump 5 mg (0.2 mg/h)), 2.8 ± 0.21 fold increase vs. the vehicle group; in assay [2] (s.c. osmotic pump 10 mg (0.4 mg/h)), 3.4 ± 0.35 fold increase vs. the vehicle group. For the same molecule, the “Glandular cell growth Lacrimal gland” value in assay [3] (setting [11]) is 0.99 ± 0.24 fold increase vs. the vehicle group; in assay [3] (setting [12]) it was 2.2 ± 0.43 fold increase vs. the vehicle group; in assay [3] (setting [13]) it was 2.3 ± 0.07 fold increase vs. the vehicle group. The “Glandular cell growth Salivary gland” value in assay [4] (setting [11]) is 0.71 ± 0.05 fold increase vs. the vehicle group; in assay [4] (setting [12]) it was 0.72 ± 0.11 fold increase vs. the vehicle group; in assay [4] (setting [13]), 2.8 ± 0.72 fold increase vs. the vehicle group.
Consider `CC[C@@H]1C(=O)OC[C@@H]1Cc1cncn1C` [pilocarpine], for which the Tear fluid in assay [1] (s.c. bolus 0.03 mg/kg, 10 minutes after administration) is recorded as 0.65 ± 0.19 fold increase vs. the vehicle group; in assay [1] (s.c. bolus 0.1 mg/kg, 10 minutes after administration) it was 0.80 ± 0.24 fold increase vs. the vehicle group; in assay [1] (s.c. bolus 0.3 mg/kg, 10 minutes after administration) it was 1.1 ± 0.14 fold increase vs. the vehicle group; in assay [1] (s.c. bolus 1 mg/kg, 10 minutes after administration (Table 3)), 2.7 ± 0.40 fold increase vs. the vehicle group. Moreover, in assay [1] (setting [5]), the “dose at which statistically significant acceleration of tear fluid secretion was attained” value was determined as 1 mg/kg. Besides, the “dose at which salivary fluid secretion acceleration action reached maximum” value in assay [2] (s.c. continuous administration) came out at 0.16 mg. Further, the Salivary fluid in assay [2] (s.c. osmotic pump 0.039 mg (0.00156 mg/h)) is given as 1.1 ± 0.04 fold increase vs. vehicle group; in assay [2] (s.c. osmotic pump 0.078 mg (0.00312 mg/h)), 1.5 ± 0.08 fold increase vs. vehicle group; in assay [2] (setting [6]), 2.9 ± 0.14 fold increase vs. vehicle group; in assay [2] (setting [7]), 2.8 ± 0.24 fold increase vs. vehicle group. The “Glandular cell growth Lacrimal gland” value in assay [3] (setting [14]) is listed as 0.69 ± 0.09 fold increase vs. the vehicle group; in assay [3] (setting [15]) it was 0.95 ± 0.23 fold increase vs. the vehicle group; in assay [3] (setting [16]), 2.8 ± 0.61 fold increase vs. the vehicle group. Also, the “Glandular cell growth Salivary gland” value was 1.4 ± 0.48 fold increase vs. the vehicle group in assay [4] (setting [14]), 1.3 ± 0.54 fold increase vs. the vehicle group in assay [4] (setting [15]) and 3.2 ± 1.1 fold increase vs. the vehicle group in assay [4] (setting [16]).
